Assay results from patent US12077503B2, “Substituted cyclic amides and their use as herbicides” (FMC CORPORATION, priority 2015, dated 2024).

Tests used:
Format in all cases: in vivo
[1] = system: velvetleaf (Abutilon theophrasti); test: Test G Post-Emergence Protocol; details: Abutilon theophrasti, post-emergence, 312 h; for pest or weed control at 15.625 g/ha: 15.625 g ai/ha, evaluated after 13 days (100=total damage to plant; 0=no damage to plant), read-out: Velvetleaf damage rating; for pest or weed control at 62.5 g/ha: 62.5 g ai/ha, read-out: Velvetleaf damage rating (100=total damage to plant; 0=no damage to plant); for pest or weed control at 62.5 g/ha / pest or weed control at 250 g/ha: evaluated after 13 days; for pest or weed control at 250 g/ha: 250 g ai/ha, read-out: damage to plant, Velvetleaf (100=total damage to plant; 0=no damage to plant)
Summary of the method: (§1)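 Post-emergence herbicidal damage, scored visually 0–100 at 13 days. Application at 15.625, 62.5 or 250 g/ha onto 8-day-old plants grown under glasshouse control.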

corn (Zea mays) [2] = test: Test G Post-Emergence Protocol; details: Zea mays, post-emergence, 312 h; for plant injury at 15.625 g/ha: 15.625 g ai/ha, evaluated after 13 days (100=total damage to plant; 0=no damage to plant), read-out: Corn damage rating; for plant injury at 62.5 g/ha: 62.5 g ai/ha, read-out: Corn damage rating (100=total damage to plant; 0=no damage to plant); for plant injury at 62.5 g/ha / plant injury at 250 g/ha: evaluated after 13 days; for plant injury at 250 g/ha: 250 g ai/ha, read-out: damage to plant, Corn (100=total damage to plant; 0=no damage to plant)
Summary of the method: as §1

[3] = system: barnyardgrass (Echinochloa crus-galli); test: Test G Post-Emergence Protocol; details: Echinochloa crus-galli, post-emergence, 312 h; for pest or weed control at 15.625 g/ha: 15.625 g ai/ha, evaluated after 13 days (100=total damage to plant; 0=no damage to plant), read-out: Barnyardgrass damage rating; for pest or weed control at 62.5 g/ha: 62.5 g ai/ha, read-out: Barnyardgrass damage rating (100=total damage to plant; 0=no damage to plant); for pest or weed control at 62.5 g/ha / pest or weed control at 250 g/ha: evaluated after 13 days; for pest or weed control at 250 g/ha: 250 g ai/ha, read-out: damage to plant, Barnyardgrass (100=total damage to plant; 0=no damage to plant)
Summary of the method: as §1

[4] = system: redroot pigweed (Amaranthus retroflexus); test: Test G Post-Emergence Protocol; details: Amaranthus retroflexus, post-emergence, 312 h; for pest or weed control at 15.625 g/ha: 15.625 g ai/ha, evaluated after 13 days (100=total damage to plant; 0=no damage to plant), read-out: Pigweed, Redroot damage rating; for pest or weed control at 62.5 g/ha: 62.5 g ai/ha, read-out: Pigweed, Redroot damage rating (100=total damage to plant; 0=no damage to plant); for pest or weed control at 62.5 g/ha / pest or weed control at 250 g/ha: evaluated after 13 days; for pest or weed control at 250 g/ha: 250 g ai/ha, read-out: damage to plant, Pigweed, Redroot (100=total damage to plant; 0=no damage to plant)
Summary of the method: as §1

[5] = system: giant foxtail (Setaria faberi); test: Test G Post-Emergence Protocol; details: Setaria faberi, post-emergence, 312 h; for pest or weed control at 15.625 g/ha: 15.625 g ai/ha, evaluated after 13 days (100=total damage to plant; 0=no damage to plant), read-out: Foxtail, Giant damage rating; for pest or weed control at 62.5 g/ha: 62.5 g ai/ha, read-out: Foxtail, Giant damage rating (100=total damage to plant; 0=no damage to plant); for pest or weed control at 62.5 g/ha / pest or weed control at 250 g/ha: evaluated after 13 days; for pest or weed control at 250 g/ha: 250 g ai/ha, read-out: damage to plant, Foxtail, Giant (100=total damage to plant; 0=no damage to plant)
Summary of the method: as §1

[6] = system: ivy-leaved morning glory (Ipomoea hederacea); test: Test G Post-Emergence Protocol; details: Ipomoea, post-emergence, 312 h; for pest or weed control at 15.625 g/ha: 15.625 g ai/ha, evaluated after 13 days (100=total damage to plant; 0=no damage to plant), read-out: Morningglory, Ivy-leaved damage rating; for pest or weed control at 62.5 g/ha: 62.5 g ai/ha, read-out: Morningglory, Ivy-leaved damage rating (100=total damage to plant; 0=no damage to plant); for pest or weed control at 62.5 g/ha / pest or weed control at 250 g/ha: evaluated after 13 days; for pest or weed control at 250 g/ha: 250 g ai/ha, read-out: damage to plant, Morningglory, Ivy-leaved (100=total damage to plant; 0=no damage to plant)
Summary of the method: as §1

[7] = system: velvetleaf (Abutilon theophrasti); test: Test G Pre-Emergence Protocol; details: Abutilon theophrasti, pre-emergence, 312 h, evaluated after 13 days; for pest or weed control at 15.625 g/ha: 15.625 g ai/ha; for pest or weed control at 15.625 g/ha / pest or weed control at 250 g/ha: read-out: Velvetleaf damage rating (100=total damage to plant; 0=no damage to plant); for pest or weed control at 62.5 g/ha: 62.5 g ai/ha, 100=total damage to plant, 0=no damage to plant, read-out: plant damage rating, Velvetleaf; for pest or weed control at 250 g/ha: 250 g ai/ha
Summary of the method: (§2)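 Test compound in 0.5% Tween 20 acetone/water (50:50) was applied at three rates (15.625, 62.5, 250 g/ha) to soil sown one day earlier. After 13 days plants were scored for injury, where 0 means unaffected and 100 means completely damaged.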

corn (Zea mays) [8] = test: Test G Pre-Emergence Protocol; details: Zea mays, pre-emergence, 312 h, evaluated after 13 days; for plant injury at 15.625 g/ha: 15.625 g ai/ha; for plant injury at 15.625 g/ha / plant injury at 250 g/ha: read-out: Corn damage rating (100=total damage to plant; 0=no damage to plant); for plant injury at 62.5 g/ha: 62.5 g ai/ha, 100=total damage to plant, 0=no damage to plant, read-out: plant damage rating, Corn; for plant injury at 250 g/ha: 250 g ai/ha
Summary of the method: as §2

[9] = system: barnyardgrass (Echinochloa crus-galli); test: Test G Pre-Emergence Protocol; details: Echinochloa crus-galli, pre-emergence, 312 h, evaluated after 13 days; for pest or weed control at 15.625 g/ha: 15.625 g ai/ha, read-out: Barnyard grass damage rating (100=total damage to plant; 0=no damage to plant); for pest or weed control at 62.5 g/ha: 62.5 g ai/ha, 100=total damage to plant, 0=no damage to plant, read-out: plant damage rating, Barnyardgrass; for pest or weed control at 250 g/ha: 250 g ai/ha, read-out: Barnyardgrass damage rating (100=total damage to plant; 0=no damage to plant)
Summary of the method: as §2

[10] = system: redroot pigweed (Amaranthus retroflexus); test: Test G Pre-Emergence Protocol; details: Amaranthus retroflexus, pre-emergence, 312 h, evaluated after 13 days; for pest or weed control at 15.625 g/ha: 15.625 g ai/ha; for pest or weed control at 15.625 g/ha / pest or weed control at 250 g/ha: read-out: Pigweed, Redroot damage rating (100=total damage to plant; 0=no damage to plant); for pest or weed control at 62.5 g/ha: 62.5 g ai/ha, 100=total damage to plant, 0=no damage to plant, read-out: plant damage rating, Pigweed, Redroot; for pest or weed control at 250 g/ha: 250 g ai/ha
Summary of the method: as §2

[11] = system: giant foxtail (Setaria faberi); test: Test G Pre-Emergence Protocol; details: Setaria faberi, pre-emergence, 312 h, evaluated after 13 days; for pest or weed control at 15.625 g/ha: 15.625 g ai/ha; for pest or weed control at 15.625 g/ha / pest or weed control at 250 g/ha: read-out: Foxtail, Giant damage rating (100=total damage to plant; 0=no damage to plant); for pest or weed control at 62.5 g/ha: 62.5 g ai/ha, 100=total damage to plant, 0=no damage to plant, read-out: plant damage rating, Foxtail, Giant; for pest or weed control at 250 g/ha: 250 g ai/ha
Summary of the method: as §2

[12] = system: ivy-leaved morning glory (Ipomoea hederacea); test: Test G Pre-Emergence Protocol; details: Ipomoea, pre-emergence, 312 h, evaluated after 13 days; for pest or weed control at 15.625 g/ha: 15.625 g ai/ha, read-out: Morning-glory, Ivy-leaved damage rating (100=total damage to plant; 0=no damage to plant); for pest or weed control at 62.5 g/ha: 62.5 g ai/ha, 100=total damage to plant, 0=no damage to plant, read-out: plant damage rating, Morningglory, Ivy-leaved; for pest or weed control at 250 g/ha: 250 g ai/ha, read-out: Morningglory, Ivy-leaved damage rating (100=total damage to plant; 0=no damage to plant)
Summary of the method: as §2

SMILES | pest or weed control at 15.625 g/ha [1] [%] | pest or weed control at 62.5 g/ha [1] [%] | pest or weed control at 250 g/ha [1] [%] | plant injury at 15.625 g/ha (corn (Zea mays) [2]) [%] | plant injury at 62.5 g/ha (corn (Zea mays) [2]) [%] | plant injury at 250 g/ha (corn (Zea mays) [2]) [%] | pest or weed control at 15.625 g/ha [3] [%] | pest or weed control at 62.5 g/ha [3] [%] | pest or weed control at 250 g/ha [3] [%] | pest or weed control at 15.625 g/ha [4] [%] | pest or weed control at 62.5 g/ha [4] [%] | pest or weed control at 250 g/ha [4] [%] | pest or weed control at 15.625 g/ha [5] [%] | pest or weed control at 62.5 g/ha [5] [%] | pest or weed control at 250 g/ha [5] [%] | pest or weed control at 15.625 g/ha [6] [%] | pest or weed control at 62.5 g/ha [6] [%] | pest or weed control at 250 g/ha [6] [%] | pest or weed control at 15.625 g/ha [7] [%] | pest or weed control at 62.5 g/ha [7] [%] | also measured
CN1C[C@H](c2cccc(C(F)F)c2)[C@@H](C(=O)Nc2cccc(F)c2F)C1=O (racemic) [Compound 1588] | 0 | 0 | 40 | 60 | 80 | 80 | 80 | 80 | 80 | 0 | 0 | 20 | 60 | 70 | 70 | 70 | 20 | 50 | 0 | 10 | pest or weed control at 250 g/ha [7]: 20%; plant injury at 15.625 g/ha (corn (Zea mays) [8]): 40%; plant injury at 62.5 g/ha (corn (Zea mays) [8]): 60%; plant injury at 250 g/ha (corn (Zea mays) [8]): 80%; pest or weed control at 15.625 g/ha [9]: 80%; pest or weed control at 62.5 g/ha [9]: 90%; pest or weed control at 250 g/ha [9]: 90%; pest or weed control at 15.625 g/ha [10]: 0%; pest or weed control at 62.5 g/ha [10]: 40%; pest or weed control at 250 g/ha [10]: 70%; pest or weed control at 15.625 g/ha [11]: 70%; pest or weed control at 62.5 g/ha [11]: 80%; pest or weed control at 250 g/ha [11]: 90%; pest or weed control at 15.625 g/ha [12]: 20%; pest or weed control at 62.5 g/ha [12]: 0%; pest or weed control at 250 g/ha [12]: 80%
COc1cc(NC(=O)[C@@H]2C(=O)N(C)C[C@H]2c2ccc(C(F)(F)F)cc2)ccn1 (racemic) [Compound 1589] | 0 | 0 | 0 | 0 | 0 | 0 | 0 | 0 | 0 | 0 | 0 | 0 | 0 | 0 | 0 | 0 | 0 | 0 | 0 | 0 | pest or weed control at 250 g/ha [7]: 0%; plant injury at 15.625 g/ha (corn (Zea mays) [8]): 0%; plant injury at 62.5 g/ha (corn (Zea mays) [8]): 0%; plant injury at 250 g/ha (corn (Zea mays) [8]): 0%; pest or weed control at 15.625 g/ha [9]: 0%; pest or weed control at 62.5 g/ha [9]: 0%; pest or weed control at 250 g/ha [9]: 0%; pest or weed control at 15.625 g/ha [10]: 0%; pest or weed control at 62.5 g/ha [10]: 0%; pest or weed control at 250 g/ha [10]: 0%; pest or weed control at 15.625 g/ha [11]: 0%; pest or weed control at 62.5 g/ha [11]: 0%; pest or weed control at 250 g/ha [11]: 0%; pest or weed control at 15.625 g/ha [12]: 0%; pest or weed control at 62.5 g/ha [12]: 0%; pest or weed control at 250 g/ha [12]: 0%
